Tested on: C57BLKS/J db/db mice
Assay: 3 months feeding study on muscle mass in db/db mice (NMR muscle mass, body weight, food intake)
Format: in vivo
Conditions: for effect on muscle loss (in words) / muscle mass increase: db/db mice, 3 months of treatment; for effect on muscle loss (in words) / muscle mass increase / BW (g), change from baseline / Muscle (g), change from baseline: 0.08% of diet; for muscle mass increase: control reduced by 2%; for BW (g), change from baseline / Muscle (g), change from baseline / BW (g), 5 months old mice / Muscle (g), 5 months old mice: male db/db mice, after 3 months of treatment; for BW (g), 5 months old mice / Muscle (g), 5 months old mice: 0.08% of diet as feed-ad-mix; for Muscle (g), 5 months old mice: total muscle mass by NMR
Method: The efficacy of resveratrol, EGCG as well as the combination of both compounds on muscle mass was tested in a 3 months feeding study in C57BLKS/J db/db mice (n=20/group). C57BLKS/J db/db mice suffer from severe metabolic disorder due to a defect in the leptin receptor and loss muscle mass as they age. Muscle wasting has been associated with chronic metabolic derangements. Moreover, muscle wasting induced by a variety of means in both rodents and humans results in similar changes in muscle anatomy, cross-sectional area, function, fiber type switching, contractile protein expression, and histology. […] These agents include anabolic steroids, growth hormone, insulin-like growth factor 1, and beta adrenergic agonists. […] Therefore, the rodent model can be used to evaluate the efficacy of compounds inhibiting muscle wasting.
Male db/db mice were obtained from Jackson Laboratory (Bar Harbor, Me., USA). Adult mice at the age of 8 weeks were used in the experiment. Mice were housed individually in plastic cages with bedding and allowed free access to standard rodent food and tap water. The animal rooms were controlled for temperature (24° C.), humidity (55%), and light (12-h light-dark cycle). The animals were randomized into four groups. Resveratrol and EGCG were administered as feed-ad-mix. Corn cellulose (1% of diet) served as a carrier substance for resveratrol and EGCG as well as a placebo when used alone. Group 1 received placebo, group 2 received a diet containing 0.08% of resveratrol; group 3 received a diet containing 0.08% of EGCG; and group 4 received a diet containing 0.08% of resveratrol and 0.08% of EGCG. Body weight and food intake were determined over the course of the study. Total muscle mass was determined by nuclear magnetic resonance (NMR) measurement after 3 months of treatment. There was no difference in food intake between the groups over the study period.

Row | Molecule | effect on muscle loss (in words) | muscle mass increase [%] | BW (g), change from baseline [g] | Muscle (g), change from baseline [g] | BW (g), 5 months old mice [g] | Muscle (g), 5 months old mice [g]
1 | (−)-epigallocatechin gallate [EGCG] | prevents muscle loss | 3 | 1.0 | 0.5 | 31.4 | 16.2
2 | Oc1ccc(C=Cc2cc(O)cc(O)c2)cc1 [Resveratrol, resveratrol] | prevents muscle loss | 6 | 3.9 | 1.0 | 34.2 | 17.0

From patent publication US20090163579A1, “Novel use of nutraceutical compositions” (priority 2006, published 2009)
